# Experiments:
# [1] = Fluorescence of free probe prior to binding to a protein tag; assay type: physicochemical
# CLIP protein tags = assay: Fluorescence activation of probe after incubation with corresponding protein tag (CLIP); assay type: biochemical; conditions: probe 5 μM, protein tag 10 μM, 37° C., 1 hr
# Description: Probes were mixed with corresponding protein tags to obtain mixed samples, in which the final probe concentration was 5 μM, and the final protein tag concentration was 10 μM. The mixed samples were incubated 37° C. for 1 hr, fluorescence spectrophotometer was used to detect the change in fluorescence intensity, and the results are shown in Table 1.
# From the quantum yield of probe bound to protein tag, after reacting with the protein tags, the probes of the Examples could be detected to have significant signal enhancement in corresponding excitation transmission channels, the fluorescence activation multiple reached several hundreds to a thousand or more, and the brightness was high, which illustrates that after the probes of the Examples are bound to the protein tags, fluorescence of the probes can be activated, and the probes have good fluorescent molecular switching properties. In contrast, though the fluorescence of the reference probes could also be activated, the quantum yield of activated fluorescence was very low, and the brightness was very poor. In particular, in view of comparison results between probe 98 and reference probe 99, probe 101 and reference probe 102, probe 103 and reference probe 104, probe 105 and reference probe 106, probe 107 and reference probe 108, probe 109 and reference probe 110, probe 111 and reference probe 112, probe 114 and reference probe 115, probe 117 and reference probe 118, probe 120 and reference probe 121 in Table 1, for the same fluorescent dye, when the ligand is connected to the electron donor part of the fluorescent dye, the fluorescence activation brightness of the probe is much higher than the reference probe in which ligand is connected to the electron acceptor part of the fluorescent dye.
# [2] = Viscosity responsiveness: fluorescence emission spectra of probes in glycerol and methanol; assay type: physicochemical; conditions: for Emission wavelength: excited at maximum excitation wavelength of each probe; for Fluorescence ratio in glycerol to methanol: probe 1×10^−5 M
# In short: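 Each probe, from a 1×10^−2 M DMSO stock, was diluted to a final 1×10^−5 M in glycerol and in methanol. Fluorescence emission spectra were then recorded under identical conditions at each probe's maximum excitation wavelength.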
SMILES,Quantum yield of free probe [1],Fluorescence activation multiple (CLIP protein tags),Quantum yield of probe bound to protein tag (CLIP protein tags),Emission wavelength [2],Fluorescence ratio in glycerol to methanol [2]
CN(CCOC(=O)NCc1ccc(COc2nccc(N)n2)cc1)c1ccc(C2=C(C#N)C(=C(C#N)C#N)OC2(C)C)cc1 [probe 20],<0.001,398,0.32,535 nm,341
COCCNC(=O)/C(C#N)=C/c1ccc(-c2ccc(N(C)CCOC(=O)NCc3ccc(COc4nccc(N)n4)cc3)cc2)s1 [probe 69],<0.001,491,0.27,620 nm,217
CN(CCOC(=O)NCc1ccc(COc2nccc(N)n2)cc1)c1ccc(-c2ccc(/C=C(\C#N)c3nc4ccccc4o3)s2)s1 [probe 81],<0.001,391,0.29,672 nm,235
COCCNC(=O)/C(C#N)=C/c1cc2cc3sc(N(C)CCOC(=O)NCc4ccc(COc5nccc(N)n5)cc4)cc3cc2s1 [probe 72],0.001,486,0.47,640 nm,268
CC1=CC(C)(C)N(CCOC(=O)NCc2ccc(COc3nccc(N)n3)cc2)c2ccc(/C=C(\C#N)c3nc4ccccc4s3)cc21 [probe 91],0.0013,192,0.24,612 nm,163
CN(CCOC(=O)NCc1ccc(COc2nccc(N)n2)cc1)c1cc2sc(/C=C(\C#N)C(=O)OC(C)(C)C)cc2s1 [probe 27],<0.001,665,0.39,555 nm,1134
CN1C(=O)/C(=C/c2ccc(N(C)CCOC(=O)NCc3ccc(COc4nccc(N)n4)cc3)cc2)N=C1/C=C/c1ccccc1 [probe 17],<0.001,498,0.15,580 nm,402
CN(CCOC(=O)NCc1ccc(COc2nccc(N)n2)cc1)c1cc2sc(/C=C(\C#N)c3nc4ccccc4s3)cc2s1 [probe 29],<0.001,621,0.33,610 nm,998
CC(C)(C)OC(=O)/C(C#N)=C/c1ccc2c(c1)SCCN2CCOC(=O)NCc1ccc(COc2nccc(N)n2)cc1 [probe 84],<0.001,431,0.16,515 nm,121
CN(CCOC(=O)NCc1ccc(COc2nccc(N)n2)cc1)c1ccc(-c2ccc(/C=C(\C#N)c3nc4ccccc4s3)s2)s1 [probe 82],<0.001,321,0.21,681 nm,241
CN(CCOC(=O)NCc1ccc(COc2nccc(N)n2)cc1)c1ccc(-c2ccc(/C=C(\C#N)C(=O)OC(C)(C)C)s2)s1 [probe 80],0.0011,349,0.38,655 nm,218
CN(CCOC(=O)NCc1ccc(COc2nccc(N)n2)cc1)c1ccc2cc(/C=C(\C#N)C(=O)OC(C)(C)C)sc2c1 [probe 34],<0.001,857,0.48,570 nm,1774

# Reference: patent publication US11209437B2, “Fluorescent probe and preparation method and use thereof” (Fluorescence Diagnosis (shanghai) Biotech Company Ltd., priority 2016, dated 2021)
